Reference: US7932382B2, “Conformationally constrained Smac mimetics and the uses thereof” (The Regents of the University of Michigan, priority 2005, dated 2011)
Where a SMILES comes first, the peptide text is derived from it. [ ]: non-standard residue; d: D form. The star is where a group is joined. 6FAM = O=C1OC2(c3ccc(O)cc3Oc3cc(O)ccc32)c2cc(C(=O)*)ccc21; Abu = CC[C@H](N)C(=O)O

Assays:
PC-3 cells = test: Apoptosis by Annexin V-FITC staining in PC-3 cells; format: cell-based, human; conditions: for potentiation of the activity of CDDP in inducing apoptosis: PC-3 cells
Experimental: PC-3 cells were treated with CDDP, Smac peptides and mimetics alone or in combination for 42 hours and apoptosis was analyzed by Annexin V-FITC staining. […] Combination of 25 μM CDDP and 10 μM or 25 μM SH-97 induced 29.3%±1.9% and 35.8%±0.4% apoptosis over control cells, respectively (FIG. 10A).
Similar experiments were performed with SH-102 (Table 5). PC-3 cells in 6-well plates were treated with SH-102 and CDDP, alone or on combination, for 42 hours. Cells were collected and stained with Annexin V-FITC and propidium iodide. The fluorescence of Annexin V-FITC and propidium iodide of individual cells was analyzed by flow cytometry. […] Combination of 25 μM CDDP and 10 μM SH-102 induced 32% apoptosis over control cells (FIG. 11).
The same experiment was performed using TAXOTERE (docetaxel), another cancer chemotherapeutic drug. PC-3 cells in 6-well plates were treated with SH-102 and TAXOTERE, alone or in combination, for 42 hours. Cells were collected and stained with Annexin V-FITC and propidium iodide. The fluorescence of Annexin V-FITC and propidium iodide of individual cells was analyzed by flow cytometry. […] Combination of 10 μM taxotere and 10 μM SH-102 induced about 18% apoptosis over control cells (FIG. 13).

MDA-231 cells = test: Apoptosis by Annexin V-FITC/propidium iodide flow cytometry in MDA-231 cells; format: cell-based, human; conditions: for cells undergoing apoptosis as compared to control cells: 42 hours; for potentiation of the activity of CDDP in inducing apoptosis: MDA-231 cells
Experimental: Similar experiments were performed using the breast cancer cell line MDA-231. MDA-231 cells in 6-well plates were treated with SH-102 and CDDP, alone or on combination, for 42 hours. Cells were collected and stained with Annexin V-FITC and propidium iodide. The fluorescence of Annexin V-FITC and propidium iodide of individual cells was analyzed by flow cytometry. 25 μM and 50 μM CDDP induced about 25% and 42% of MDA-231 cells to undergo apoptosis as compared to control cells, respectively (FIG. 14). […] Combination of 25 and 50 μM CDDP and 10 μM SH-102 induced about 35% and 75% apoptosis over control cells, respectively (FIG. 14).

[1] = target: T1, human XIAP-BIR3 protein (residues 241-356) (Homo sapiens, UniProt P98170); test: biochemical
[2] = target: T1, human XIAP-BIR3 protein (residues 241-356); test: Fluorescence polarization saturation (direct) binding of labeled Smac peptides; parameters: The human XIAP-BIR3 protein (residues 241-356) with a His tag; conditions: 5 nM labeled peptide titrated with 0 to 40 μM protein; read-out: Kd value (dissociation constant to XIAP-BIR3)
[3] = test system: MDA-435, MDA468, and T47D cells; test: Cell growth inhibition (WST-8) in breast cancer cell lines; format: cell-based, human; conditions: all three cell lines, 5 days
Experimental: To test the effect of Smac mimetics by themselves in inhibition of cell growth in human cancer cells, SH-102 was administered to three different breast cancer cell lines. MDA-435, MDA468, and T47D cells were seeded in 96-well plates with increasing concentrations of SH-102, Smac8, or Smac8-C. The cells were then incubated at 37° C. with 5% CO2 for 5 days, followed by detection of cell viability with WST-8. Untreated cells were used as 100% growth. […]. […] (FIGS. 18A-18C).

XIAP = XIAP (Homo sapiens, UniProt P98170); conditions: cited from earlier work
Sequence of XIAP (P98170 whole entry): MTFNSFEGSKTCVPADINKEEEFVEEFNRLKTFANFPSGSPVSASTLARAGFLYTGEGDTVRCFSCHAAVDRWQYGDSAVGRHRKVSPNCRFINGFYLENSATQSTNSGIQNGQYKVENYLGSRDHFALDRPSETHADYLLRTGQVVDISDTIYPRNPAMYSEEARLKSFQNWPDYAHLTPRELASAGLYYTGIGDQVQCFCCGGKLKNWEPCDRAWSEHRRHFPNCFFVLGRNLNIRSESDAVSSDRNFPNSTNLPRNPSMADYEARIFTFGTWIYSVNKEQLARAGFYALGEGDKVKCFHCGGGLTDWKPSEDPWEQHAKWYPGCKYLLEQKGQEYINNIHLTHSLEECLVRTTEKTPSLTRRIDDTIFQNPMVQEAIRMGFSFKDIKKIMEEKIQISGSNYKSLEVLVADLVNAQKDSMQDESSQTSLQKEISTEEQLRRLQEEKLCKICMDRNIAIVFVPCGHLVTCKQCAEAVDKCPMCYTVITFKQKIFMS

T1 sequence (P98170 241-356): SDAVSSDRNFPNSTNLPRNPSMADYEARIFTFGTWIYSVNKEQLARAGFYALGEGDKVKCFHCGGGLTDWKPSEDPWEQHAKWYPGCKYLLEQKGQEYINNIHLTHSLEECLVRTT

Molecule: [NH2][Pt]([NH2])([Cl])[Cl] [CDDP, cisplatin]
- cancer cells undergoing apoptosis as compared to control cells (PC-3 cells; 50 μM CDDP alone, 42 hours): ~25%
- cells undergoing apoptosis as compared to control cells (MDA-231 cells; 25 μM CDDP alone): about 25%
- cells undergoing apoptosis as compared to control cells (MDA-231 cells; 50 μM CDDP alone): ~42%

Molecule: CC[C@H](N)C(=O)N[C@H]1CCC[C@H]2CC[C@@H](C(=O)NC(c3ccccc3)c3ccccc3)N2C1=O [Compound 34]
- apoptosis compared to untreated cancer cells (PC-3 cells; SH-102 alone up to 100 μM, 42 hours): did not induce significantly more apoptosis

Molecule: CCC(CC)CNC(=O)[C@@H]1CC[C@@H]2CC[C@H](NC(=O)[C@H](C)N)C(=O)N21 [SH-76]
- Ki [1]: > 200 µM

Molecule: CCC[C@H](N)C(=O)N[C@H]1CC[C@H]2CC[C@@H](C(=O)NCc3ccccc3)N2C1=O [SH-93]
- potentiation of the activity of CDDP in inducing apoptosis (PC-3 cells): unable to potentiate
- potentiation of the activity of CDDP in inducing apoptosis (MDA-231 cells): unable to potentiate

Molecule: CC[C@H](N)C(=O)N[C@@H](CCCNC(=N)N)C(=O)N1CCC[C@H]1C(=O)N[C@@H](Cc1ccccc1)C(=O)N[C@@H](CCCCNC(=O)c1ccc2c(c1)C1(OC2=O)c2ccc(O)cc2Oc2cc(O)ccc21)C(N)=O [SM5F, AbuRPFK-FAM] (H-[Abu]RPFK(6FAM)-NH2; N-terminus and C-terminus assumed)
- Kd [2]: 0.0179 µM

Molecule: AVPIAQKS [Smac8, Smac peptide without a carrier peptide, negative control]
- inhibition of cell growth (in words) [3]: essentially ineffective
- potentiation of the activity of CDDP in inducing apoptosis (PC-3 cells): unable to potentiate
- potentiation of the activity of CDDP in inducing apoptosis (MDA-231 cells): unable to potentiate

B1: mature Smac protein: mature Smac/DIABLO protein, endogenous inhibitor of XIAP (protein, UniProt Q9NR28 22-239, looked up)
Diablo IAP-binding …: LCVPVVANFKKRCFSELIRPWHKTVTIGFGVTLCAVPIAQKSEPHSLSSEALMRRAVSLVTDSTSTFLSQTTYALIEAITEYTKAVYTLTSLYRQYTSLLGKMNSEEEDEVWQVIIGARAEMTSKHQEYLKLETTWMTAVGLSEMAAEAAYQTGADQASITARNHIQLVKLQVEEVHQLSRKAETKLAEAQIEELRQKTQEEGEERAESEQEAYLRED
- Kd (XIAP): 0.42 µM
